Columns and labels:
amylosucrase (ams) = target: T1, amylosucrase (ams) (Faecalibacterium duncaniae, UniProt C7H8X5); test: MALDI-TOF-MS of products, lysate of overexpressing E. coli; type: biochemical; conditions: 10 mg/ml sucrose, 50 mM sodium phosphate, 37°C, 10 min; 36 ng soluble lysate protein
T1 construct: gene FAEPRAA2165_02769; full-length ORF amplified from genomic DNA, pET28a (BamHI/XhoI sites in primers, tag kept if any), E. coli BL21(DE3), soluble lysate; EC 2.4.1.4, GH13; primers encode N-term MAAKQE, C-term LVKNK
T1 sequence (C7H8X5 1-609): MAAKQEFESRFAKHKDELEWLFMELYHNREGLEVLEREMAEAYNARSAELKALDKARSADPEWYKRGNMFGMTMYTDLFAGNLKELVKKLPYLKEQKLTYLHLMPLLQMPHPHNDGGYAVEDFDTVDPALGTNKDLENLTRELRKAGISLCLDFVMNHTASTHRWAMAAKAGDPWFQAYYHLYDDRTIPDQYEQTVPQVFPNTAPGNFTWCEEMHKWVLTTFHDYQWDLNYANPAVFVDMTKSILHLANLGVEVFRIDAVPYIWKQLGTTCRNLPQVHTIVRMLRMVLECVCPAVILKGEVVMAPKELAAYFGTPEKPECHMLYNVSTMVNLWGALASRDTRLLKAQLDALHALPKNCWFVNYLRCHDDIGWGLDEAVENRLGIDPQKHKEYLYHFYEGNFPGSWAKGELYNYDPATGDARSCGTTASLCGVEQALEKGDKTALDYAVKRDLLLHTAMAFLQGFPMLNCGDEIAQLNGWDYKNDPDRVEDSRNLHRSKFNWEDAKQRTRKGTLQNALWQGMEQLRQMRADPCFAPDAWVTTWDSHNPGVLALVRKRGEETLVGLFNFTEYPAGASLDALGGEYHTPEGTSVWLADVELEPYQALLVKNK

β-fructosidase (bfrA) = target: T2, β-fructosidase (bfrA) (Faecalibacterium duncaniae, UniProt C7H8W7); test: as above; type: biochemical; conditions: 10 mg/ml sucrose, 50 mM sodium phosphate, 37°C, 10 min; 36 ng soluble lysate protein
T2 construct: gene FAEPRAA2165_02761; full-length ORF amplified from genomic DNA, pET28a (BamHI/XhoI sites in primers, tag kept if any), E. coli BL21(DE3), soluble lysate; EC 3.2.1.26, GH32; primers encode N-term MNDLTL, C-term FELNL
T2 sequence (C7H8W7 1-491): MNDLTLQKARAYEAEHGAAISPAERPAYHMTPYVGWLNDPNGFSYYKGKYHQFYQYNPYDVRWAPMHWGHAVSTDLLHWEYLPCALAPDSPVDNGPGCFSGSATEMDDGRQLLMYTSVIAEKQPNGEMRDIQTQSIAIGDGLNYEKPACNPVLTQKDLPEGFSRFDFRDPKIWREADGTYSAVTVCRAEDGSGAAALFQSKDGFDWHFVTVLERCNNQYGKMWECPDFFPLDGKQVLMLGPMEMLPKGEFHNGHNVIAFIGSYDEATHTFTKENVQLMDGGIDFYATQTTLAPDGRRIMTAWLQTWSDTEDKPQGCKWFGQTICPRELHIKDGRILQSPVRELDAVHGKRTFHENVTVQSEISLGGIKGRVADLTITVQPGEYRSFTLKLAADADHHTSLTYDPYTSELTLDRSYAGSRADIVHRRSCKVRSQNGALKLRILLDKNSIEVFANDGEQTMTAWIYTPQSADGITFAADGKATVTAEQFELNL

## OC[C@H]1O[C@@](CO)(O[C@H]2O[C@H](CO)[C@@H](O)[C@H](O)[C@H]2O)[C@@H](O)[C@@H]1O [sucrose]
Amylosucrase (ams)
  MALDI-TOF-MS of products, lysate of overexpressing E. coli: sucrose was degraded by the pET28a-ams and pET28a-bfrA recombinant strains
β-fructosidase (bfrA)
  MALDI-TOF-MS of products, lysate of overexpressing E. coli: sucrose was degraded by the pET28a-ams and pET28a-bfrA recombinant strains

From PMC8894670, “An Integrative Multiomics Approach to Characterize Prebiotic Inulin Effects on Faecalibacterium prausnitzii” (Frontiers in Bioengineering and Biotechnology, 2022)
